One series has as its system HCT-116. The series can be described thus: Antiproliferative activity against human HCT-116 cells assessed as inhibition of cell growth measured after 48 hrs by MTT assay. The class given is functional, cell-based. Particulars: HCT-116, 48 h. Background: Tetrazolium dyes change colour on reduction, which living cells bring about.
The subject of another series is MCF7. The series can be described thus: Antiproliferative activity against human MCF7 cells assessed as inhibition of cell growth measured after 48 hrs by MTT assay. Particulars: MCF7, 48 h. The class given is functional, cell-based.
The subject of a further series is A549. The series can be described thus: Antiproliferative activity against human A549 cells assessed as inhibition of cell growth measured after 48 hrs by MTT assay. It counts as functional, cell-based. Particulars: A549, 48 h.
Series [1] deals with MDA-MB-231. The series is described as follows: Antiproliferative activity against human MDA-MB-231 cells assessed as inhibition of cell growth measured after 48 hrs by MTT assay. Particulars: MDA-MB-231, 48 h. The class given is functional, cell-based.
Series [2] in a line: Cytotoxicity against human L02 cells assessed as inhibition in cell growth measured after 48 hrs by MTT assay. The class given is toxicity, cell-based.
For series [3], the system named is MDA-MB-231. The series can be described thus: Antiproliferative activity against human MDA-MB-231 cells assessed as effect on NO level at 25 uM incubated for 2 hrs. It counts as functional, cell-based.
Series [4] in a line: Selectivity index, ratio of IC50 for cytotoxicity against human L02 cells to IC50 for antiproliferative activity against human MDA-MB-231 cells. The conditions noted are these: L02 cells versus MDA-MB-231 cells, read-out: Ratio IC50. The class given is toxicity, cell-based.
Series [5] concerns MDA-MB-231. The series can be described thus: Antiproliferative activity against human MDA-MB-231 cells assessed as inhibition of cell growth measured after 48 hrs in presence of 7-(diethylamino)-2-oxo-2H-chromene-3-carboxylic acid by MTT assay. It counts as functional, cell-based. Particulars: MDA-MB-231, 48 h.
A short description of series [6]: Cytotoxicity against human MCF-10A cells assessed as inhibition in cell growth measured after 48 hrs by MTT assay. It counts as toxicity, cell-based.
Series [7] is described as follows: Selectivity index, ratio of IC50 for cytotoxicity against human MCF-10A cells to IC50 for antiproliferative activity against human MDA-MB-231 cells. The class given is toxicity, cell-based. Particulars: MCF-10A cells versus MDA-MB-231 cells, read-out: Ratio IC50.
Series [8] deals with MDA-MB-231. The series can be described thus: Induction of apoptosis in human MDA-MB-231 cells assessed as increase in CypD level incubated for 8 hrs by Western blotting analysis. It counts as functional, cell-based. Particulars: dose 5-20 nM. Background: In western blotting, separated proteins are transferred to a membrane and probed.
Series [9] relates to MDA-MB-231. The series is described as follows: Induction of apoptosis in human MDA-MB-231 cells assessed as effect on ANT level at 20 nM incubated for 8 hrs by Western blotting analysis. The class given is functional, cell-based.
Series [10] can be described thus: Toxicity in BALB/C mouse xenografted with human MDA-MB-231 cells assessed as change in body weight at 2.5 mg/kg, ip administered every 2 days measured after 3 weeks. It counts as organism-based. The conditions noted are these: in vivo, 504 h.
Series [11] deals with MDA-MB-231. The series is described as follows: Antiproliferative activity against human MDA-MB-231 cells assessed as inhibition of cell growth measured after 48 hrs in presence of 3,4-bis(phenylsulfonyl)-1,2,5-oxadiazole 2-oxide by MTT assay. It counts as functional, cell-based. Particulars: MDA-MB-231, 48 h.

Activity calls are given as the source filed them. The calls are words filed in the database; no cut-off is given here.

The term IC50 denotes the point on the concentration scale where inhibition reaches its midpoint. Turning to `O=c1ccc2cc(O)c(OCCCOc3no[n+]([O-])c3S(=O)(=O)c3ccccc3)cc2o1`, the IC50 with HCT-116 came to 5970 nM; with MCF7, 11300 nM; in the series with A549, 12100 nM; in the series on MDA-MB-231 [1], 2160 nM.

With `O=c1ccc2cc(O)c(OCCCCCCOc3no[n+]([O-])c3S(=O)(=O)c3ccccc3)cc2o1`, the IC50 is 2690 nM in the series with HCT-116; 5300 nM in the series with MCF7; 130 nM with MDA-MB-231 [5]; 12500 nM in the series with A549; 120 nM in the series with MDA-MB-231 [1]. Also, the IC50 at 48 h is 5730 nM in series [2] and 12600 nM in [6]. The outcome in the series with MDA-MB-231 [3] was Active. Further, the selectivity ratio in series [4] was determined as 47.8; in series [7] it was 394.

For `CCN(CC)c1ccc2cc(C(=O)OCCCCCCOc3no[n+]([O-])c3S(=O)(=O)c3ccccc3)c(=O)oc2c1`, the outcome in the series on MDA-MB-231 [8] and in the series with MDA-MB-231 [9] was inactive.

Turning to `O=c1ccc2cc(OCCCCCCOc3no[n+]([O-])c3S(=O)(=O)c3ccccc3)c(OCCCCCCOc3no[n+]([O-])c3S(=O)(=O)c3ccccc3)cc2o1`, the IC50 with HCT-116 amounted to 2410 nM; in the series on MCF7, 10400 nM; with A549 it was 3050 nM; in the series on MDA-MB-231 [1] it was 148 nM.

As to `O=c1ccc2cc(OCCCCCOc3no[n+]([O-])c3S(=O)(=O)c3ccccc3)c(OCCCCCOc3no[n+]([O-])c3S(=O)(=O)c3ccccc3)cc2o1`, the IC50 worked out at 3100 nM in the series with HCT-116, 2120 nM in the series on MCF7, 2820 nM with A549 and 100 nM in the series with MDA-MB-231 [1].

Consider `CCN(CC)c1ccc2cc(C(=O)OCCCOc3cc4ccc(=O)oc4cc3OCCCCCCOc3no[n+]([O-])c3S(=O)(=O)c3ccccc3)c(=O)oc2c1`, for which the IC50 with HCT-116 was found to be 3260 nM; in the series on MCF7, 1060 nM; in the series with A549 it was 2260 nM; with MDA-MB-231 [1], 53 nM.

With `CCN(CC)c1ccc2cc(C(=O)OCCCCOc3cc4ccc(=O)oc4cc3OCCCCCCOc3no[n+]([O-])c3S(=O)(=O)c3ccccc3)c(=O)oc2c1`, the IC50 in the series on HCT-116 was 3750 nM; in the series on MCF7, 2440 nM; in the series on A549 it was 1610 nM; in the series on MDA-MB-231 [1] it was 53 nM.

For `O=c1ccc2cc(OCCCOc3no[n+]([O-])c3S(=O)(=O)c3ccccc3)c(OCCCOc3no[n+]([O-])c3S(=O)(=O)c3ccccc3)cc2o1`, the IC50 in the series with HCT-116 was 1120 nM; in the series on MCF7, 2330 nM; with A549, 1960 nM; with MDA-MB-231 [1], 58 nM.

`O=c1ccc2cc(OCCCCOc3no[n+]([O-])c3S(=O)(=O)c3ccccc3)c(OCCCCOc3no[n+]([O-])c3S(=O)(=O)c3ccccc3)cc2o1`: the IC50 in the series on HCT-116 was found to be 2030 nM; with MCF7 it was 3700 nM; in the series with A549 it was 1210 nM; in the series on MDA-MB-231 [1], 42 nM. For the same molecule, the results for the IC50 at 48 h in series [2] and in series [6] were 5640 nM and 6440 nM, respectively. The outcome in the series with MDA-MB-231 [3] was Active. Besides, the selectivity ratio was 134 in [4] and 153 in series [7].

Take `O=c1ccc2cc(O)c(OCCCCOc3no[n+]([O-])c3S(=O)(=O)c3ccccc3)cc2o1`: the IC50 in the series with HCT-116 was 5020 nM; in the series with MCF7, 8710 nM; with A549, 11800 nM; with MDA-MB-231 [1], 1990 nM.

Take `COc1cccc2c1C(=O)c1c(O)c3c(c(O)c1C2=O)C[C@@](O)(C(=O)CO)C[C@@H]3O[C@H]1C[C@H](N)[C@H](O)[C@H](C)O1` [DOXORUBICIN]: the IC50 turned out to be 150 nM with HCT-116 and 740 nM in the series with MCF7. Also, the IC50 at 48 h in series [2] was determined as 600 nM; in series [6] it was 740 nM. Besides, in [10], the Activity result is “Non-Toxic”.

As to `CCN(CC)c1ccc2cc(C(=O)OCCCCCCOc3cc4ccc(=O)oc4cc3OCCCCCCOc3no[n+]([O-])c3S(=O)(=O)c3ccccc3)c(=O)oc2c1`, the IC50 was 9140 nM with HCT-116, 2990 nM in the series with MCF7, 4430 nM with A549 and 108 nM in the series on MDA-MB-231 [1].

For the molecule `O=c1ccc2cc(O)c(OCCCCCOc3no[n+]([O-])c3S(=O)(=O)c3ccccc3)cc2o1`, the IC50 in the series with HCT-116 was 4280 nM; in the series on MCF7, 7940 nM; in the series on A549, 12800 nM; in the series on MDA-MB-231 [1], 2160 nM.

Take `O=S(=O)(c1ccccc1)c1no[n+]([O-])c1S(=O)(=O)c1ccccc1`: in the series with MDA-MB-231 [1], the IC50 amounted to 7910 nM.

For `O=c1ccc2cc(O)c(O)cc2o1` [ESCULETIN], the IC50 in the series on HCT-116 is more than 50000 nM; in the series with MCF7, more than 50000 nM; in the series with MDA-MB-231 [11], 7470 nM; with A549 it was more than 50000 nM; in the series on MDA-MB-231 [1], more than 50000 nM.

For the origin of these results see ChEMBL document CHEMBL5321282, “Design, Synthesis, and Biological Evaluation of Esculetin-Furoxan-DEAC Ternary Hybrids for Anti-Triple Negative Breast Cancer” (J Med Chem, 2023).
